Calls of active or inactive are those of the source. No cut-off for these calls is given here.
System: HCC827
Test: Induction of cell cycle arrest in human HCC827 cells assessed as accumulation of cells at G0/G1 phase at 30 nM measured after 24 hrs by PI staining based flow cytometry analysis (reference value: 54.36%)
Assay type: functional
Settings: not given

SMILES | Activity [%]
O=C(NO)c1ccsc1Nc1nc(Nc2ccc(N3CCOCC3)cc2)ncc1Cl | 65.79

Molecular target: Platelet-derived growth factor receptor alpha (Homo sapiens) (UniProt P16234)
Test: Inhibition of PDGFR alpha (unknown origin) by HTRF assay relative to control
Settings: concentration not given here

inhibition [%] | SMILES
< 70 | O=C(NO)c1ccsc1Nc1nc(Nc2ccc(N3CCOCC3)cc2)ncc1Cl

System: HCC827
Test: Induction of cell cycle arrest in human HCC827 cells assessed as accumulation of cells at G2/M phase at 30 nM measured after 24 hrs by PI staining based flow cytometry analysis (reference value: 16.83%)
Assay type: functional
Settings: not given

SMILES | Activity [%]
O=C(NO)c1ccsc1Nc1nc(Nc2ccc(N3CCOCC3)cc2)ncc1Cl | 20.13

Molecular target: Proto-oncogene tyrosine-protein kinase ROS (Homo sapiens) (UniProt P08922)
Test: Inhibition of ROS (unknown origin) by HTRF assay relative to control
Settings: concentration not given here

inhibition [%] | SMILES
< 70 | O=C(NO)c1ccsc1Nc1nc(Nc2ccc(N3CCOCC3)cc2)ncc1Cl

Molecular target: RAF proto-oncogene serine/threonine-protein kinase (Homo sapiens) (UniProt P04049)
Test: Inhibition of c-RAF (unknown origin) by HTRF assay relative to control
Settings: concentration not given here

inhibition [%] | SMILES
< 70 | O=C(NO)c1ccsc1Nc1nc(Nc2ccc(N3CCOCC3)cc2)ncc1Cl

System: HCC827
Test: Induction of cell cycle arrest in human HCC827 cells assessed as accumulation of cells at G0/G1 phase at 10 nM measured after 24 hrs by PI staining based flow cytometry analysis (reference value: 54.36%)
Assay type: functional
Settings: not given

SMILES | Activity [%]
O=C(NO)c1ccsc1Nc1nc(Nc2ccc(N3CCOCC3)cc2)ncc1Cl | 64.32

System: HCC827
Test: Induction of cell cycle arrest in human HCC827 cells assessed as accumulation of cells at S phase at 10 nM measured after 24 hrs by PI staining based flow cytometry analysis (reference value: 28.81%)
Assay type: functional
Settings: not given

SMILES | Activity [%]
O=C(NO)c1ccsc1Nc1nc(Nc2ccc(N3CCOCC3)cc2)ncc1Cl | 20.21

System: NCI-H1975
Test: Antiproliferative activity against human NCI-H1975 cells assessed as inhibition of cell growth measured after 72 hrs by MTT assay
Assay type: functional, cell-based
Settings: NCI-H1975, 72 h

IC50 [nM] | SMILES
135 | O=C(NO)c1ccsc1Nc1nc(Nc2ccc(N3CCOCC3)cc2)ncc1Cl

Molecular target: Mast/stem cell growth factor receptor Kit (Homo sapiens) (UniProt P10721)
Test: Inhibition of c-kit (unknown origin) by HTRF assay relative to control
Settings: concentration not given here

Sequence of Mast/stem cell growth factor receptor Kit (Homo sapiens) (P10721 whole entry): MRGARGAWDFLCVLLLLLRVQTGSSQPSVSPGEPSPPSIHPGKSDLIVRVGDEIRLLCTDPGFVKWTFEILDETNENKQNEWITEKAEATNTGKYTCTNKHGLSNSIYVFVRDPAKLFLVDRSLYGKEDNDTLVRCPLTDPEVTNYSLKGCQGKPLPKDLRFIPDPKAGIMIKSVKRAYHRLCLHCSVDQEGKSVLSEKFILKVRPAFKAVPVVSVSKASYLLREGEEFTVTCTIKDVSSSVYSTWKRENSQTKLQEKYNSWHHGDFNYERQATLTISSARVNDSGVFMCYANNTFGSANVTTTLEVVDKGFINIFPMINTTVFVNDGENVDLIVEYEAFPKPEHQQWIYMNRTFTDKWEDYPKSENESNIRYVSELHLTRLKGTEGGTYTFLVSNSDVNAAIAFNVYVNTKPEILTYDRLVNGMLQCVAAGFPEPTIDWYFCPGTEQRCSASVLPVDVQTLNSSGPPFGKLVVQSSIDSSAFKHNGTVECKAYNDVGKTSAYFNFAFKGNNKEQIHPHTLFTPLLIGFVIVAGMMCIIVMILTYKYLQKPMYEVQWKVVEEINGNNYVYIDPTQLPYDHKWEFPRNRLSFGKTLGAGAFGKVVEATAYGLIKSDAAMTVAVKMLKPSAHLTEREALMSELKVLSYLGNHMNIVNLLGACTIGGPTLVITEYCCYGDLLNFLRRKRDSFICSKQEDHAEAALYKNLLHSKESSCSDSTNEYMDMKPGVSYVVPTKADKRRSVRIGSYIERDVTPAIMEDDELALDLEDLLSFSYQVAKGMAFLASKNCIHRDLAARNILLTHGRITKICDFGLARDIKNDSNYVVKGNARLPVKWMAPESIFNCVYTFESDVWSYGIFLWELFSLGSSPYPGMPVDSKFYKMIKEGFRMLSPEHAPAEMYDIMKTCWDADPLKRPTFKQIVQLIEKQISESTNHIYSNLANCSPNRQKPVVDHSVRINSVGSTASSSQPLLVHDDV

inhibition [%] | SMILES
< 70 | O=C(NO)c1ccsc1Nc1nc(Nc2ccc(N3CCOCC3)cc2)ncc1Cl

Molecular target: T1, Epidermal growth factor receptor (Homo sapiens, UniProt P00533)
Test: Inhibition of wild type EGFR (unknown origin) preincubated for 10 mins followed by substrate addition and measured after 50 mins in presence of ATP by HTRF assay
Settings: not given

T1 sequence (P00533 whole entry): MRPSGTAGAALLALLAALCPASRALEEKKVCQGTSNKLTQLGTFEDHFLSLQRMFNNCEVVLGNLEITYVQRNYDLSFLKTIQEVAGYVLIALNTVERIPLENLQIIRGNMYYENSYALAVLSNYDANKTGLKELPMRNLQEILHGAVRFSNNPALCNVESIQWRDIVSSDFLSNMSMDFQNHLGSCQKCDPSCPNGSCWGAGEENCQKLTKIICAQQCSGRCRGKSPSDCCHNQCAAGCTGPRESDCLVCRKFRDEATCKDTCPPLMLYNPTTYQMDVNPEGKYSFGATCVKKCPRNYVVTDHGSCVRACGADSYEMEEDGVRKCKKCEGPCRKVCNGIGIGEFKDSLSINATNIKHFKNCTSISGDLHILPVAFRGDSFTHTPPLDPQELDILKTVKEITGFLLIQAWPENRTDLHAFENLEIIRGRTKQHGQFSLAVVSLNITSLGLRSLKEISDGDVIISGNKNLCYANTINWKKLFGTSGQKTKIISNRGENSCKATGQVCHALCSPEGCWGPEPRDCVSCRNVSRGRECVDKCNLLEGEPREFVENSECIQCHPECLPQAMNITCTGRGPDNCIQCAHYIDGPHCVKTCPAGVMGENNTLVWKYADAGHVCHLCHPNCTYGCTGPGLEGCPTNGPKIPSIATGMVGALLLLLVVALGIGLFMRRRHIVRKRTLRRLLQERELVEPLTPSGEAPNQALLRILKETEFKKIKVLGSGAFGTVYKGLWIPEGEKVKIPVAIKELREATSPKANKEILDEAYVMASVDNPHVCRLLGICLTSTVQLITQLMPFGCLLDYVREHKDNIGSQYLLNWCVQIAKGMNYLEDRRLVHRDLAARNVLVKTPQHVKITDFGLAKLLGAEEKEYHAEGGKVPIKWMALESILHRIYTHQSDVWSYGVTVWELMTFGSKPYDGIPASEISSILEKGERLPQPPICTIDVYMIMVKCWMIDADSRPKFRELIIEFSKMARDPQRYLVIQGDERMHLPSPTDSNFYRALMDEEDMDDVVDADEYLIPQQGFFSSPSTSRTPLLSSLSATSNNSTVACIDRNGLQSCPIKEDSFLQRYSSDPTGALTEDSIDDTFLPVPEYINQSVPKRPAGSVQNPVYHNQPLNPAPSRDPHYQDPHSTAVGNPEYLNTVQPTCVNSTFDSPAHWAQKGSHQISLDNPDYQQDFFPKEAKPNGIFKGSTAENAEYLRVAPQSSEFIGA

IC50 [nM] | SMILES
34.4 | O=C(NO)c1ccsc1Nc1nc(Nc2ccc(N3CCOCC3)cc2)ncc1Cl

System: HCC827
Test: Induction of cell cycle arrest in human HCC827 cells assessed as accumulation of cells at G2/M phase at 10 nM measured after 24 hrs by PI staining based flow cytometry analysis (reference value: 16.83%)
Assay type: functional
Settings: not given

SMILES | Activity [%]
O=C(NO)c1ccsc1Nc1nc(Nc2ccc(N3CCOCC3)cc2)ncc1Cl | 15.47

System: Epidermal growth factor receptor (Homo sapiens), P00533 [UNDEFINED MUTATION]
Test: not given
Settings: dose 30.0 nM

Sequence of Epidermal growth factor receptor (Homo sapiens), P00533 [UNDEFINED MUTATION] (P00533 whole entry, looked up, change not shown): as the sequence (P00533 whole entry) above

inhibition [%] | SMILES
47.8 | O=C(NO)c1ccsc1Nc1nc(Nc2ccc(N3CCOCC3)cc2)ncc1Cl

Molecular target: Epidermal growth factor receptor (Homo sapiens, UniProt P00533, EX19DEL/T790M)
Test: Inhibition of EGFR Del19/T790M (unknown origin) preincubated for 10 mins followed by substrate addition and measured after 50 mins in presence of ATP by HTRF assay
Settings: not given

IC50 [nM] | SMILES
897 | O=C(NO)c1ccsc1Nc1nc(Nc2ccc(N3CCOCC3)cc2)ncc1Cl

System: HCC827
Test: Induction of cell cycle arrest in human HCC827 cells assessed as accumulation of cells at G2/M phase at 100 nM measured after 24 hrs by PI staining based flow cytometry analysis (reference value: 16.83%)
Assay type: functional
Settings: not given

SMILES | Activity [%]
O=C(NO)c1ccsc1Nc1nc(Nc2ccc(N3CCOCC3)cc2)ncc1Cl | 25.12

Molecular target: Insulin-like growth factor 1 receptor (Homo sapiens) (UniProt P08069)
Test: Inhibition of IGF-1R (unknown origin) by HTRF assay relative to control
Settings: concentration not given here

inhibition [%] | SMILES
< 70 | O=C(NO)c1ccsc1Nc1nc(Nc2ccc(N3CCOCC3)cc2)ncc1Cl

System: HCC827
Test: Antiproliferative activity against human HCC827 cells assessed as inhibition of cell growth measured after 72 hrs by MTT assay
Assay type: functional, cell-based
Settings: HCC827, 72 h

IC50 [nM] | SMILES
31 | O=C(NO)c1ccsc1Nc1nc(Nc2ccc(N3CCOCC3)cc2)ncc1Cl

System: HCC827
Test: Induction of cell cycle arrest in human HCC827 cells assessed as accumulation of cells at S phase at 100 nM measured after 24 hrs by PI staining based flow cytometry analysis (reference value: 28.81%)
Assay type: functional
Settings: not given

SMILES | Activity [%]
O=C(NO)c1ccsc1Nc1nc(Nc2ccc(N3CCOCC3)cc2)ncc1Cl | 15.6

Molecular target: Dual specificity mitogen-activated protein kinase kinase; MEK1/2 (Homo sapiens) (UniProt P36507+Q02750)
Test: Inhibition of MEK1/2 (unknown origin) by HTRF assay relative to control
Assay type: protein assay
Settings: concentration not given here

Sequence of Dual specificity mitogen-activated protein kinase kinase; MEK1/2 (Homo sapiens) (P36507 whole entry, looked up): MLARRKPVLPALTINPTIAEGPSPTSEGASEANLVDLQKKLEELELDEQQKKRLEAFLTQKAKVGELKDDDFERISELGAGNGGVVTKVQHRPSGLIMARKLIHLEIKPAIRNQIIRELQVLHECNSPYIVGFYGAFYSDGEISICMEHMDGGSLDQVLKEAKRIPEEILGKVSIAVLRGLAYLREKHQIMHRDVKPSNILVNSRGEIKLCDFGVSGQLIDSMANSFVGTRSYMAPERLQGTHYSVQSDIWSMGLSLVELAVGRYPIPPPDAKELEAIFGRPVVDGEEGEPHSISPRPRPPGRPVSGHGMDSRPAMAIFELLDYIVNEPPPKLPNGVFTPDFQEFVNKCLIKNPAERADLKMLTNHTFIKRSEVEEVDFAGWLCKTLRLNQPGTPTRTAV
Sequence of Dual specificity mitogen-activated protein kinase kinase; MEK1/2 (Homo sapiens) (Q02750 whole entry, looked up): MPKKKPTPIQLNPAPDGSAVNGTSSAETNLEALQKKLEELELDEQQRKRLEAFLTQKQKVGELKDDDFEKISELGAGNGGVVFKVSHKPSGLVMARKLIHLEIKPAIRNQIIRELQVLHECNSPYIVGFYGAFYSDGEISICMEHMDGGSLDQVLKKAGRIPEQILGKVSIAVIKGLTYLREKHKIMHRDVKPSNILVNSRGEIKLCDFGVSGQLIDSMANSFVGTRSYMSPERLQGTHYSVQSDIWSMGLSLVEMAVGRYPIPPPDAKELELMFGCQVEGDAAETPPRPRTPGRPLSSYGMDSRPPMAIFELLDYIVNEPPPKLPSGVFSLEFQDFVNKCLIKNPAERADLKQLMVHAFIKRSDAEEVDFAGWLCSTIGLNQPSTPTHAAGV

inhibition [%] | SMILES
< 70 | O=C(NO)c1ccsc1Nc1nc(Nc2ccc(N3CCOCC3)cc2)ncc1Cl

Species on record: Homo sapiens
Test: Inhibition of VGFR (unknown origin) by HTRF assay relative to control
Settings: concentration not given here

inhibition [%] | SMILES
< 70 | O=C(NO)c1ccsc1Nc1nc(Nc2ccc(N3CCOCC3)cc2)ncc1Cl

Molecular target: Proto-oncogene tyrosine-protein kinase Src (Homo sapiens) (UniProt P12931)
Test: Inhibition of Src (unknown origin) by HTRF assay relative to control
Settings: concentration not given here

Sequence of Proto-oncogene tyrosine-protein kinase Src (Homo sapiens) (P12931 2-536 limits assumed): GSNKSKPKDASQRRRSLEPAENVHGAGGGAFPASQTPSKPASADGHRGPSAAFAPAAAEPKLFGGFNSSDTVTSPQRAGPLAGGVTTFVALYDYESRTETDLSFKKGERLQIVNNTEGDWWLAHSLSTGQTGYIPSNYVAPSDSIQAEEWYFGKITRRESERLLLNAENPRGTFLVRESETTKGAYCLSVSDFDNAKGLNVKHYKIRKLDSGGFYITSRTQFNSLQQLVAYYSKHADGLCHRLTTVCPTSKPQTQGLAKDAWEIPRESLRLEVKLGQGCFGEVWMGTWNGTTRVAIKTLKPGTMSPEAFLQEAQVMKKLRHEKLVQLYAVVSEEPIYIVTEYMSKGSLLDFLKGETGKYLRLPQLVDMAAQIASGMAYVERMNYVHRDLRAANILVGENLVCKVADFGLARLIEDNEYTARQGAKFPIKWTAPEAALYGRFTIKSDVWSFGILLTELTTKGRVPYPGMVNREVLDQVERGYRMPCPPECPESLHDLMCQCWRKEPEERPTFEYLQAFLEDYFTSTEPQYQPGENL

inhibition [%] | SMILES
< 70 | O=C(NO)c1ccsc1Nc1nc(Nc2ccc(N3CCOCC3)cc2)ncc1Cl

Molecular target: Epidermal growth factor receptor (Homo sapiens, UniProt P00533, L858R/T790M)
Test: Inhibition of EGFR L858R/T790M (unknown origin) preincubated for 10 mins followed by substrate addition and measured after 50 mins in presence of ATP by HTRF assay
Settings: not given

IC50 [nM] | SMILES
72.3 | O=C(NO)c1ccsc1Nc1nc(Nc2ccc(N3CCOCC3)cc2)ncc1Cl

Molecular target: Tyrosine-protein kinase BTK (Homo sapiens) (UniProt Q06187)
Test: Inhibition of BTK (unknown origin) by HTRF assay relative to control
Settings: concentration not given here

inhibition [%] | SMILES
< 70 | O=C(NO)c1ccsc1Nc1nc(Nc2ccc(N3CCOCC3)cc2)ncc1Cl

Species on record: Homo sapiens
Test: Inhibition of Akt (unknown origin) by HTRF assay relative to control
Settings: concentration not given here

inhibition [%] | SMILES
< 70 | O=C(NO)c1ccsc1Nc1nc(Nc2ccc(N3CCOCC3)cc2)ncc1Cl

System: HCC827
Test: Induction of cell cycle arrest in human HCC827 cells assessed as accumulation of cells at G0/G1 phase at 100 nM measured after 24 hrs by PI staining based flow cytometry analysis (reference value: 54.36%)
Assay type: functional
Settings: not given

SMILES | Activity [%]
O=C(NO)c1ccsc1Nc1nc(Nc2ccc(N3CCOCC3)cc2)ncc1Cl | 59.28

System: HCC827
Test: Inhibition of colony formation in human HCC827 cells at 10 to 100 nM measured after 14 days by crystal violet staining based analysis
Assay type: functional, cell-based
Settings: dose 10-100 nM, time 14.0 day

SMILES | inhibition
O=C(NO)c1ccsc1Nc1nc(Nc2ccc(N3CCOCC3)cc2)ncc1Cl | Active

Molecular target: Tyrosine-protein kinase ABL1 (Homo sapiens) (UniProt P00519)
Test: Inhibition of Abl (unknown origin) by HTRF assay relative to control
Settings: concentration not given here

inhibition [%] | SMILES
< 70 | O=C(NO)c1ccsc1Nc1nc(Nc2ccc(N3CCOCC3)cc2)ncc1Cl

Molecular target: Epidermal growth factor receptor (Homo sapiens, UniProt P00533, C797S/L858R/T790M)
Test: Inhibition of EGFR L858R/T790M/C797S triple mutant (unknown origin) preincubated for 10 mins followed by substrate addition and measured after 50 mins in presence of ATP by HTRF assay
Settings: not given

IC50 [nM] | SMILES
26.7 | O=C(NO)c1ccsc1Nc1nc(Nc2ccc(N3CCOCC3)cc2)ncc1Cl

System: HCC827
Test: Induction of cell cycle arrest in human HCC827 cells assessed as accumulation of cells at S phase at 30 nM measured after 24 hrs by PI staining based flow cytometry analysis (reference value: 28.81%)
Assay type: functional
Settings: not given

SMILES | Activity [%]
O=C(NO)c1ccsc1Nc1nc(Nc2ccc(N3CCOCC3)cc2)ncc1Cl | 14.08

Molecular target: Epidermal growth factor receptor (Homo sapiens, UniProt P00533, C797S/EX19DEL/T790M)
Test: Inhibition of EGFR Del19/T790M/C797S triple mutant (unknown origin) preincubated for 10 mins followed by substrate addition and measured after 50 mins in presence of ATP by HTRF assay
Settings: not given

IC50 [nM] | SMILES
37.9 | O=C(NO)c1ccsc1Nc1nc(Nc2ccc(N3CCOCC3)cc2)ncc1Cl

System: not listed separately
Test: Cytotoxicity against human 2BS cells assessed as inhibition of cell viability measured after 72 hrs by MTT assay
Assay type: toxicity, cell-based
Settings: not given

SMILES | IC50 at 72 h [nM]
O=C(NO)c1ccsc1Nc1nc(Nc2ccc(N3CCOCC3)cc2)ncc1Cl | 15200

System: Epidermal growth factor receptor (Homo sapiens), P00533 [UNDEFINED MUTATION]
Test: not given
Settings: dose 100.0 nM

inhibition [%] | SMILES
73.3 | O=C(NO)c1ccsc1Nc1nc(Nc2ccc(N3CCOCC3)cc2)ncc1Cl

System: not listed separately
Test: Inhibition of ERK (unknown origin) by HTRF assay relative to control
Settings: Homo sapiens; concentration not given here

inhibition [%] | SMILES
< 70 | O=C(NO)c1ccsc1Nc1nc(Nc2ccc(N3CCOCC3)cc2)ncc1Cl

Molecular target: Serine/threonine-protein kinase mTOR (Homo sapiens) (UniProt P42345)
Test: Inhibition of mTOR (unknown origin) by HTRF assay relative to control
Settings: concentration not given here

inhibition [%] | SMILES
< 70 | O=C(NO)c1ccsc1Nc1nc(Nc2ccc(N3CCOCC3)cc2)ncc1Cl

System: not listed separately
Test: Cytotoxicity against human L02 cells assessed as inhibition of cell viability measured after 72 hrs by MTT assay
Assay type: toxicity, cell-based
Settings: not given

SMILES | IC50 at 72 h [nM]
O=C(NO)c1ccsc1Nc1nc(Nc2ccc(N3CCOCC3)cc2)ncc1Cl | 5030

System: A549
Test: Antiproliferative activity against human A549 cells assessed as inhibition of cell growth measured after 72 hrs by MTT assay
Assay type: functional, cell-based
Settings: A549, 72 h

IC50 [nM] | SMILES
230 | O=C(NO)c1ccsc1Nc1nc(Nc2ccc(N3CCOCC3)cc2)ncc1Cl

Molecular target: T1, Epidermal growth factor receptor
Test: Inhibition of wild type EGFR (unknown origin) at 100 nM preincubated for 10 mins followed by substrate addition and measured after 50 mins in presence of ATP by HTRF assay relative to control
Settings: time 60.0 min

inhibition [%] | SMILES
83.6 | O=C(NO)c1ccsc1Nc1nc(Nc2ccc(N3CCOCC3)cc2)ncc1Cl

Species on record: Homo sapiens
Test: Inhibition of FGFR (unknown origin) by HTRF assay relative to control
Settings: concentration not given here

inhibition [%] | SMILES
< 70 | O=C(NO)c1ccsc1Nc1nc(Nc2ccc(N3CCOCC3)cc2)ncc1Cl
